Data as given in patent publication US5468472A, “Topical process for lightening the skin or treating pigmental blemishes using a composition containing 4-thioresorcin derivatives” (L'Oreal, priority 1993, dated 1995).

These molecules were tested on fungal tyrosinase (assay: in vitro inhibition test of the activity of tyrosinase (dopachrome formation, 475 nm)). Details: inhibitor at 50 mol % with respect to tyrosine; lowering of maximum dopachrome (OD 475 nm at plateau) vs no inhibitor; pH 6.5, 25° C.
Type: biochemical
Source text: According to this test, the amount of dopachrome formed during the chain of reactions of conversion of tyrosine to melanins is monitored by visible spectrometry at 475 nm.
The concentration of dopachrome formed with time in the presence and in the absence of the inhibitor thus measured.
The inhibitor concentrations are set at 50 mol % with respect to the concentration of tyrosine in the reaction medium.
The inhibition effect is expressed by the lowering in the maximum amount of dopachrome formed (optical density value at 475 nm read at the plateau of the curve) with respect to the amount obtained in the absence of inhibitor.
A - 0.1M Phosphate buffer, pH=6.5 (1% Tween 20)
B - 2.10^-3 M Mother solution of L-tyrosine in A
C - 10^-4 M Mother solution of L-dopa in A
D - Mother solution of fungal tyrosinase in A containing 2,400 units/ml
E - 10^-2 M Mother solution of the inhibitor in A (Solutions C and D are to be prepared on the day)
reference cell: 3 ml of A
homogenize and equilibrate at 25° C.
mix rapidly and observe the kinetics by measuring the absorbence at 475 nm as a function of time.

% change in maximum dopachrome vs no inhibitor [%]	Compound
-90	CSc1ccc(O)cc1O
-88	CCSc1ccc(O)cc1O
-95	Oc1ccc(SCc2ccccc2)c(O)c1
-79	Oc1ccc(SCCSc2ccc(O)cc2O)c(O)c1
-76	CCCSc1ccc(O)cc1O
-84	CC(C)Sc1ccc(O)cc1O
-94	CCOC(=O)CSc1ccc(O)cc1O
-65	Oc1ccc(SCCCN2CCOCC2)c(O)c1

Compound	% change in maximum dopachrome vs no inhibitor [%]
Oc1ccc(O)cc1 [hydroquinone, reference compound]	-33
